Measurements taken from ChEMBL document CHEMBL2094260, “Malaria Box Tuberculosis Screening Data”.

How the values were obtained:
[1] = test system: Mycobacterium tuberculosis; assay: MMV: Screen against Mtb, single point, non replicating, at 25uM; assay type: functional
[2] = test system: Mycobacterium tuberculosis; assay: MMV: Screen against Mtb, single point, replicating, at 25uM; assay type: functional

## O=C(NC(c1ccccc1)c1ccc2cccnc2c1O)c1ccccc1 (stereo unspecified)
[1]
  inhibition at 25 µM: 17.1%
[2]
  inhibition at 25 µM: 7.65%

## CCc1ccc(Nc2cc(C)nc3nc(C)nn23)cc1
[1]
  inhibition at 25 µM: 9.06%
[2]
  inhibition at 25 µM: 11.4%

## COc1ccc(C(=O)Nc2ccc(Cl)cc2C(=O)Nc2ccncc2)cc1
[1]
  inhibition at 25 µM: 30.9%
[2]
  inhibition at 25 µM: 4.46%

## COc1ccc(-c2cn3c(C(=O)Nc4ccccc4Cl)c(-c4ccccc4)c4c3n2CCCC4)cc1
[1]
  inhibition at 25 µM: 2.56%
[2]
  inhibition at 25 µM: 8.39%

## CCC(=O)Nc1nnc(Cc2ccc(OC)c(OC)c2)s1
[1]
  inhibition at 25 µM: 1.56%
[2]
  inhibition at 25 µM: -1.3%

## COc1ccc(C(O)(CCC(C)C)C(CN2CCOCC2)c2ccc(Cl)cc2)cc1 (stereo unspecified)
[1]
  inhibition at 25 µM: 10%
[2]
  inhibition at 25 µM: 4.78%

## CCCCCCc1cc(O)c2c3c(c(=O)oc2c1)CCC(C)C3 (stereo unspecified)
[1]
  inhibition at 25 µM: 11.4%
[2]
  inhibition at 25 µM: 12.8%

## CC1CCCCN1CCCNC(=O)c1ccc2c(c1)sc1nc(-c3ccc(F)cc3)cn12 (stereo unspecified)
[1]
  inhibition at 25 µM: 9.76%
[2]
  inhibition at 25 µM: 33.2%

## Cc1ccc(N2C(=O)C3C(C2=O)C2(c4ccccc4)C(=O)C3(c3ccccc3)C(c3ccccc3)=C2c2ccccc2)cc1 (stereo unspecified)
[1]
  inhibition at 25 µM: 4.88%
[2]
  inhibition at 25 µM: 9.93%

## CCCCOc1ccc(C(=O)Nc2cc(C)on2)cc1
[1]
  inhibition at 25 µM: 15%
[2]
  inhibition at 25 µM: 23.1%

## O=C(NCCCN1CCC(N2CCCCC2)CC1)C1=Cc2cc(Br)ccc2OC1
[1]
  inhibition at 25 µM: 6.82%
[2]
  inhibition at 25 µM: 14.7%

## Cc1cc(Nc2ccc(Cl)cc2)n2nc(C(F)(F)F)nc2n1
[1]
  inhibition at 25 µM: 10.3%
[2]
  inhibition at 25 µM: 9.63%

## COc1cccc(Nc2nc(N)c3ccccc3n2)c1
[1]
  inhibition at 25 µM: 11.4%
[2]
  inhibition at 25 µM: 6.04%

## CCN(CC)c1cc(C)c2cc(NC(=O)c3cccc(OC)c3)ccc2n1
[1]
  inhibition at 25 µM: 19.7%
[2]
  inhibition at 25 µM: 18.7%

## CCOc1ccc(/C=C/c2nc(=O)c3ccccc3o2)cc1
[1]
  inhibition at 25 µM: 12%
[2]
  inhibition at 25 µM: 18.9%

## OC1CCCCC1C1(NC(=S)Nc2ccccc2)CCCCC1 (stereo unspecified)
[1]
  inhibition at 25 µM: 13.9%
[2]
  inhibition at 25 µM: 7.76%

## CN1c2ccccc2N(C)C1c1ccc2c(c1)OCO2
[1]
  inhibition at 25 µM: 14.5%
[2]
  inhibition at 25 µM: 9.63%

## O=C(NCC1Cc2cccc(-c3ccncc3)c2O1)c1csc2c1CCCC2 (stereo unspecified)
[1]
  inhibition at 25 µM: 5.92%
[2]
  inhibition at 25 µM: 14.2%

## Cn1c(=O)n(C)c2cc(CNCCNc3ccnc4cc(Cl)ccc34)ccc21
[1]
  inhibition at 25 µM: 8.95%
[2]
  inhibition at 25 µM: 11.4%

## O=C(Nc1ccccc1O)c1ccc(Oc2cccc(C(=O)Nc3ccccc3O)c2)cc1
[1]
  inhibition at 25 µM: 11.7%
[2]
  inhibition at 25 µM: 11.8%

## O=C(Nc1cccc(-c2nc3ccccc3[nH]2)c1)c1cccc(NC(=O)c2ccco2)c1
[1]
  inhibition at 25 µM: 46.1%
[2]
  inhibition at 25 µM: 21.2%

## CCOC(=O)c1cn(CC)c2cc(N(C)CCc3ccc(OC)c(OC)c3)c(F)cc2c1=O
[1]
  inhibition at 25 µM: 11.9%
[2]
  inhibition at 25 µM: 14.8%

## COC(=O)c1ccc(C2C3=C(O)CC(c4ccc(F)cc4)CC3=Nc3ccccc3N2C(=O)c2ccccc2)cc1 (stereo unspecified)
[1]
  inhibition at 25 µM: 18.9%
[2]
  inhibition at 25 µM: 28.3%

## Cc1ccc(C2CC(C(F)(F)F)n3nc(C(=O)N4CCN(C(c5ccccc5)c5ccccc5)CC4)cc3N2)cc1 (stereo unspecified)
[1]
  inhibition at 25 µM: 10.5%
[2]
  inhibition at 25 µM: 14.3%

## COc1cccc(NC(=O)Cn2c(C)c(C#N)c3ccccc32)c1
[1]
  inhibition at 25 µM: 8.89%
[2]
  inhibition at 25 µM: 7.96%

## COc1cc(CNCCc2ccc(Cl)cc2)cc(OC)c1O
[1]
  inhibition at 25 µM: 35.9%
[2]
  inhibition at 25 µM: 0.392%

## c1ccc(Cn2c(N=Nc3c(Nc4ccccc4)ccc4ccccc34)nc3ccccc32)cc1
[1]
  inhibition at 25 µM: 18.7%
[2]
  inhibition at 25 µM: 14.9%

## N#Cc1nc(Cc2cccc3ccccc23)oc1N1CCN(C(c2ccccc2)c2ccccc2)CC1
[1]
  inhibition at 25 µM: 18.9%
[2]
  inhibition at 25 µM: 7.13%

## CN(C)c1ccc(C=Cc2nc(=O)c3ccccc3o2)cc1
[1]
  inhibition at 25 µM: 20.4%
[2]
  inhibition at 25 µM: 11.9%

## CC(C)(C)c1ccc(C(=O)Nc2nc3ccccc3s2)cc1
[1]
  inhibition at 25 µM: -0.011%
[2]
  inhibition at 25 µM: 54%

## O=C(Nc1ccc(C23CC4CC(CC(c5ccccc5)(C4)C2)C3)cc1)c1cccs1
[1]
  inhibition at 25 µM: -0.283%
[2]
  inhibition at 25 µM: 9.48%

## CCOC(=O)C1CCN(C(=O)CN2C(=O)c3ccccc3C2c2c[nH]c3ccccc23)CC1 (stereo unspecified)
[1]
  inhibition at 25 µM: 8.89%
[2]
  inhibition at 25 µM: 4.16%

## COC(=O)c1ccc(Cl)c2c1C1C=CCC1C(c1cccc3ccccc13)N2 (stereo unspecified)
[1]
  inhibition at 25 µM: -4.9%
[2]
  inhibition at 25 µM: 12.1%
